These are literature values, as cited in patent publication US20070142355A1, “Association of a sinus node If curent inhibitor and an angiotensin converting enzyme inhibitor, and pharmaceutical compositions containing it” (LES LABORATOIRES SERVIER, priority 2005, published 2007).

For the data set the following is noted: ivabradine alone, as generally established in clinical trials.

For `COc1cc2c(cc1OC)CC(=O)N(CCCN(C)C[C@H]1Cc3cc(OC)c(OC)cc31)CC2` [ivabradine, 3-{3-[{[(7S)-3,4-dimethoxy-bicyclo[4.2.0]octa-1,3,5-trien-7-yl]methyl}(methyl)amino]propyl}-7,8-dimethoxy-1,3,4,5-tetrahydro-2H-3-benzazepin-2-one], the “slight increase in systolic arterial pressure” value is given as around 1 mmHg.
